Results on one molecule are retold here after US6878751B1, “Administration of resveratrol to treat inflammatory respiratory disorders” (Imperial College of Science Technology and Medicine, priority 2000, dated 2005).

The structures appear in SMILES notation.

Usually EC50 stands for the concentration at which the effect is half-maximal.

Series [1] relates to IL-8 release, 16HBE-16o^− cells. Description: IL-8 release (ELISA) in IL-1β stimulated 16HBE-16o− cells. The following applies: Homo sapiens, 1 ng/ml IL-1β, read-out: EC50 for inhibition of the release of IL-8. Format: cell-based. How it is done: (§1) The human airway epithelial cell line A549 may be employed to study resveratrol inhibition of the release of IL-8 (interleukin 8) and GM-CSF (granulocyte macrophage-colony stimulating factor) by a 1 ng/ml stimulation with IL-1β (interleukin 1β). A549 cells, BEAS-2B cells and 16HBE-16o^− cells were stimulated with 1 ng/ml levels of IL-1β in the presence of resveratrol.
(§2) Cells, including the A549 cells, were cultured in Dulbecco's modified Eagle's medium (DMEM) 10% (v/v) fetal calf serum (FCS), 100 μg/ml penicillin and 100 μg/ml streptomycin. IL-8 release was measured by commercially available ELISA kit (R&D Systems).
(In an ELISA, binding on a coated surface is turned into a signal by an enzyme label.)

A further series deals with IL-8 release, A549 cells. Description: IL-8 release (ELISA) in IL-1β stimulated A549 cells. The following applies: Homo sapiens, 1 ng/ml IL-1β, read-out: EC50 for inhibition of the release of IL-8. Format: cell-based. The method, then:
as §1, §2

In another series the test system is iNOS mRNA. Description: iNOS mRNA expression by RT-PCR in cytomix-treated primary epithelial cells. The series is classed as cell-based, human. Conditions: primary epithelial cells treated 4 hours with cytomix. The method, then: Human primary epithelial cells are cultured from normal donor tissue. Explant cultures of tissue obtained from normal human lung transplant donors provided human primary epithelial (HPE) cells. The HPE cells were cultured in Ham's F12 nutrient medium containing 5% (v/v) fetal calf serum (FCS), 1 μM hydrocortisone, 5 ng/ml EGF (epithelial growth factor), 10 μg/ml insulin, 10 nM retinoic acid, 0.5 μg/ml transferrin, 2 μg/ml triiodothyronine, 1.5 μg/ml NaHCO3, 100 μg/ml penicillin, 100 μg/ml streptomycin and 0.25 μg/m amphotericin B; the cells were incubated at 37° C. in a humidified atmosphere containing 95% (v/v) air, 5% (v/v) CO2. The HPE cells were cultured for the last 24 hours prior to the experimental treatments under the same conditions except that additive free Ham's F12 media was substituted for the supplemented Ham's F12 media described above.
Expression of mRNA for iNOS was evaluated by RT-PCR of RNA extracted from the cells using the Qiagen RNeasy mini kit as directed by the manufacturer (Crawley, Sussex, U.K.). RT-PCR was performed according to routine methods. […]

In series [2] the test system is Smokers with no disease or mild COPD. Description: Oral resveratrol for chemoprevention of COPD in smokers (Example 10). The series is classed as in vivo, human. Conditions: 2 to 5 years. The method, then:
Resveratrol is evaluated clinically for efficacy in chemoprevention of COPD in smokers. The study is generally patterned after the asthma studies with modifications appropriate to the clinical and histopathologic evaluation of COPD disease, and the references listed in the preceding examples may be applied as appropriate. Smokers with no disease or mild COPD are treated once or more per day with gelatin capsules containing resveratrol. The population of smokers are subdivided into subpopulations: clinically and histopathologically disease free, clinically asymptomatic with histopathologic inflammation and mildly COPD symptomatic, meaning some chronic bronchitis but no pulmonary impairment causing hypoxemia or acidosis. Each subpopulation is divided randomly and blindly into four approximately equal groups that receive either 0 (placebo), 200, 2000, or 3000 mg/day resveratrol […] in oral doses of 0, 50, 500, or 750 mg administered 4 times daily for 2 to 5 years. […]
Patients are medically monitored for clinical symptoms of COPD throughout the study, including onset of symptoms and frequency and severity thereof. […] Forced expiratory volume (FEV) and forced inspiratory volume (FIV) are also evaluated to measure airway patency as a direct measure of clinical morbidity and to determine correlation the histopathologic and other indicators of clinical disease. […]

Another series deals with COPD patients. Description: Oral resveratrol clinical evaluation in COPD (Example 8). Format: in vivo, human. Conditions: oral, 200, 2000 or 3000 mg/day, about six months. The method, then:
Resveratrol is evaluated clinically for efficacy in treating COPD. The study is generally patterned after the asthma studies with modifications appropriate to the clinical and histopathologic evaluation of COPD disease, and the references listed in the preceding examples may be applied as appropriate. Smokers are treated once or more per day with gelatin capsules containing resveratrol. The different populations of COPD patients are subdivided into subpopulations: emphysema patients, bronchitis patients and other COPD. Patients are divided randomly and blindly into four approximately equal groups that receive either 0 (placebo), 200, 2000, or 3000 mg/day resveratrol for about six months in oral doses of 0, 50, 500, or 750 mg administered 4 times daily for about six months.
Patients are medically monitored for clinical symptoms of COPD throughout the study, including frequency and severity of hypoxemic and respiratiry acidotic exacerbations. In addition, induced sputum samples are obtained from the patients at days 0, 30, 90, and 180 and neutrophil counts are performed and the samples are assayed for IL-8 and myeloperoxidase by routine methods. Forced expiratory volume (FEV) and forced inspiratory volume (FIV) are also evaluated to measure airway patency as a direct measure of clinical morbidity and to determine correlation the histopathologic and other indicators of clinical disease. […]

Regarding `Oc1ccc(/C=C/c2cc(O)cc(O)c2)cc1` [Resveratrol, 3,5,4′-trihydroxystilbene], the EC50 in series [1] was found to be 8.9 ± 3.5 µM; in the series on IL-8 release, A549 cells it was 72 ± 11 µM. The “inhibition of iNOS expression as measured by mRNA” value with iNOS mRNA is on record as “inhibited iNOS expression”. The side effects entry in series [2] (oral, relative to those expected from steroid administration) is on record as “without significant side effects”. The “efficacy in chemoprevention of COPD in smokers” value in series [2] (oral, 200, 2000 or 3000 mg/day) is on record as “effective for chemoprevention of COPD in smokers”. Also, in the series on COPD patients, the “efficacy in treating COPD” value was “effective for treating COPD”.
